Patent publication US10793557B2, “Sting agonist compounds” (Merck Sharp & Dohme Corp., priority 2018, dated 2020)

Key:
[1] = molecular target: T1, full-length WT STING (Homo sapiens, UniProt Q86WV6, H232R); test: 3H-cGAMP filtration binding assay (WT STING); settings: for EC50: competition with tritiated cGAMP, WT STING membrane
T1 construct: AviTag (after gg linker) (C); HRV3C cleavage site (after gs linker) (C); HIS8 (C); made in house; host or cells: Trichoplusia ni (Hi-Five) insect cells infected with baculovirus (virus generated and amplified in Sf21 cells); used as a washed membrane preparation
Protocol: (§1) The ability of compounds to bind STING is quantified by their ability to compete with tritiated cGAMP ligand for human STING receptor membrane using a radioactive filter-binding assay. The binding assay employs STING receptor obtained from Trichoplusia ni cell membranes (T. ni; Expression Systems, cat #94-002F, www.expressionsystems.com) overexpressing full-length WT STING and tritiated cGAMP ligand.
The basic WT STING filtration assay protocol is as follows:
16 nM of [^3H] c-GAMP ligand was prepared by diluting into assay buffer, and 50 uL of this working stock was manually added to each well of the assay plate. After ligand addition, 2 uL of either titrated test compound, DMSO control (Sigma #276855), or cold cGAMP control was added to the appropriate wells using a BIOMEK FX. The serially titrated compound was prepared on a Hamilton STARPlus CORE in a 96-well plate (Greiner, #651201) using a 1:3 ten-point dose response format. Following compound addition, a 2.2 ug/ml working concentration of STING membrane (SEQ. ID. No. 3) was prepared by diluting concentrated membrane into assay buffer (1×PBS; Invitrogen # SH30028.02) and douncing 7× using a manual tissue homogenizer (Wheaton, #357546). 148 uL of this prepared membrane was then manually added to each well of a 96-well deep-well polypropylene plate (Fisher Scientific, #12-566-121). Compound, ligand, and membrane then incubated for 60 min at RT before the contents of each assay plate were filtered through a 96-well GF/B filter plate (PerkinElmer, #6005250) using a TOMTEC MACH III Cell Harvester equipped with 20 mM HEPES buffer (Fisher Scientific, # BP299500). The filter plates were then dried at 55° C. for 30 min using a pressurized VWR oven before 30 uL of ULTIMA GOLD F scintillate was added to each well. Tritium levels for each reaction well were then measured using a PerkinElmer TopCount plate reader.
(§2) After normalization to controls, the percent activity for each compound concentration was calculated by measuring the amount of remaining radioactivity. The plot of percent activity versus the log of compound concentration was fit with a 4-parameter dose response equation to calculate EC50 values.

[2] = molecular target: T2, full-length HAQ STING (Homo sapiens, UniProt Q86WV6, G230A/H232R/R293Q/R71H); test: 3H-cGAMP filtration binding assay (HAQ STING); settings: competition with tritiated cGAMP, HAQ STING membrane
T2 construct: AviTag (after GG linker) (C); HRV3C cleavage site (after GS linker) (C); HIS8 (C); made in house; host or cells: Trichoplusia ni (Hi-Five) insect cells infected with baculovirus (virus generated and amplified in Sf21 cells); used as a washed membrane preparation
Excerpt: The ability of compounds to bind STING is quantified by the ability to compete with tritiated cGAMP ligand for human STING receptor membrane using a radioactive filter-binding assay. The binding assay employs STING receptor obtained from Hi-Five cell membranes overexpressing full-length HAQ STING prepared in-house and tritiated cGAMP ligand also purified in-house.
as §1, with “HAQ” for “WT”
The basic HAQ STING filtration assay protocol is as follows:
The compounds were serially titrated by the Hamilton STARPlus CORE in a 96-well plate (Greiner, #651201) using a 1:3 ten-point dose response format. After compound preparation, a 2.2 ug/ml working concentration of STING membrane (SEQ. ID. No. 1) was prepared by diluting concentrated membrane into assay buffer (1×PBS; Invitrogen # SH30028.02) and douncing 7× using a manual tissue homogenizer (Wheaton, #357546). 148 uL of prepared membrane was then manually added to each well of a 96-well deep-well polypropylene plate (Fisher Scientific, #12-566-121). Following membrane addition, 2 uL of either titrated test compound, DMSO control (Sigma #276855), or cold cGAMP control was added to the appropriate wells using a BIOMEK FX. Compound and membrane then preincubated for 60 min at RT to allow compound binding to equilibrate. Following equilibration, 8 nM of [^3H]c-GAMP ligand was prepared by diluting into assay buffer, and 50 uL of this working stock was then manually added to each well of the assay plate. Plates were then incubated at RT for 60 min, and the contents of each assay plate were then filtered through a 96-well GF/B filter plate (PerkinElmer, #6005250) using a TOMTEC MACH III Cell Harvester equipped with 20 mM HEPES buffer (Fisher Scientific, # BP299500). The filter plates were then dried at 55° C. for 30 min using a pressurized oven before 30 uL of ULTIMA GOLD F scintillate was added to each well. Tritium levels for each reaction well were then measured using a PerkinElmer TopCount plate reader.
as §2

[3] = system: secretion of interferon-beta from THP1 cells; test: IFN-β secretion in THP1 cell culture (5 h); assay type: cell-based; settings: Homo sapiens, THP-1, 5 h, compound at 30 μM, 30 uM cGAMP = 100%, read-out: % Effect at 30 μM relative to 2′3′-cGAMP
Protocol: The ability of compounds to stimulate the secretion of interferon-beta from THP1 cells was measured using a human IFN-β AlphaLISA kit (Perkin Elmer, Cat. No. AL265F). The basic protocol is as follows:
A Labcyte Echo 550 acoustic dispenser was used to transfer 120 nL of compound dissolved in DMSO into the wells of an empty, sterile 384-well microplate, (Corning, Cat. No. 3712). THP1 cells (American Type Culture Collection, Cat. No. TIB202) previously frozen in Recovery Medium (Life Technologies, Cat. No. 12648-010) were thawed and immediately diluted 10-fold into 37° C. assay medium (RPMI 1640+L-Glutamine & phenol red, Life Technologies, Cat. No. 11875-085; 0.5% heat inactivated fetal bovine serum, Sigma Aldrich, Cat. No. F4135; 1 mM Sodium Pyruvate, Life Technologies, Cat. No. 11360-070; 1× non-essential amino acids; Life Technologies, Cat. No. 11140-050). The cell viability and count was ascertained using a Beckman Coulter V-Cell XR cell counter. The cells suspension was centrifuged at 200×g for 5 min at RT. Cells were resuspended to a density of 0.8×10^6/mL in 37° C. assay medium. Subsequent liquid transfers were performed using either a Matrix electronic multichannel pipette or an Agilent Bravo Automated Liquid Handling Platform.
The assay was started by dispensing 40 μL of the previously prepared cell suspension into the wells of the plate containing compounds. After 5 h incubation at 37° C., 5% CO2 in a humidified atmosphere, the plate of cells and compounds was centrifuged at 200×g for 5 min at RT. From each well, 5 μL of supernatant was transferred into corresponding wells of a white 384-well plate (Perkin Elmer, Cat. No. 6005620). To these supernatant-containing wells was added 10 μL of 5× Anti-Analyte Acceptor beads (50 μg/mL of AlphaLISA HiBlock Buffer) and incubated for 30 min at RT while shaking on an orbital plate shaker. To each well was added 10 μL of 5× Biotinylated Antibody Anti-analyte (5 nM in AlphaLISA HiBlock Buffer) and incubated on an orbital plate shaker for 60 min at RT or overnight at 4° C. To each well was added 25 μL of 2× SA-Donor beads (80 μg/mL in AlphaLISA HiBlock Buffer) and incubated for 30-45 min at RT in the dark while shaking on an orbital plate shaker. The plate was then read on a Perkin Elmer Envision (λex=680 nm, […]). The percent effect of the AlphaLISA signal at each compound concentration was calculated based on 30 uM cGAMP positive controls and 0.3% DMSO negative controls. The plot of percent effect versus the log of compound concentration was fit with a 4-parameter concentration response equation to calculate EC50 values. The test compounds were tested at concentrations 30000, 10000, 3333, 1111, 370.4, 123.4, 41.2, 13.7, 4.6, and 1.5 nM with 0.3% residual DMSO. The control compound, cGAMP was tested at concentrations 100000, 33333, 11111, 3704, 1235, 412, 137, 46, and 15 nM with 0.3% residual DMSO.
Compounds of the disclosure were evaluated for IFN-β secretion in THP1 cell culture as described above. The following table tabulates the biological data for these compounds as percent activation relative to 2′3′-cGAMP at the 30 µM concentration.

T1 sequence (Q86WV6 with tags, fused parts or gaps H232R): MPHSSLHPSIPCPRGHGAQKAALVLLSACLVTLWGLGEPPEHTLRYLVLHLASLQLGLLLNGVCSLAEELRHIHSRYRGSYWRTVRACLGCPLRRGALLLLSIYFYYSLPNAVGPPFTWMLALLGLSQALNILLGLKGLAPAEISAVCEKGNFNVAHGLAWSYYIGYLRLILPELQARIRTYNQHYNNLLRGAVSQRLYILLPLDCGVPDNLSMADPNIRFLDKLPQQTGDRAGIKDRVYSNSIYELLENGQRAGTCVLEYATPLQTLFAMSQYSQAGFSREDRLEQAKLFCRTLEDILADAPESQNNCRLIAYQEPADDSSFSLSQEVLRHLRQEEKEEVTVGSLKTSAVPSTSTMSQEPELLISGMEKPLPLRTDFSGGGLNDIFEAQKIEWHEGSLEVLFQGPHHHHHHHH
T2 sequence (Q86WV6 with tags, fused parts or gaps R71H/G230A/H232R/R293Q): as the sequence (Q86WV6 with tags, fused parts or gaps H232R) above, with R71H, G230A, R293Q counted along it

Row | EC50 [1] | EC50 [2] | inhibition at 20 µM ([1]; at 20,000 nM compound) | SMILES | activation at 30 µM [3]
1 | 219 nM | 24 nM |  | COc1cc2sc(CCC(C)(C)C(=O)O)cc2c(F)c1OCCCOc1c(OC)cc2sc(C(=O)[C@@H]3CC[C@H]3C(=O)O)cc2c1F (relative stereo) [Example 141, trans-2-(5-(3-((2-(3-carboxy-3-methylbutyl)-4-fluoro-6-methoxybenzo[b]thiophen-5-yl)oxy)propoxy)-4-fluoro-6-methoxybenzo[b]thiophene-2-carbonyl)cyclobutane-1-carboxylic acid] | 143%
2 | 628 nM | 18 nM |  | COc1cc2sc(C(=O)C[C@H](C)C(=O)O)cc2c(F)c1OCCCOc1cc2sc(C(=O)[C@@H]3CC[C@H]3C(=O)O)cc2c(F)c1OC (single isomer, unassigned) [Example 96] | 43%
3 |  | 1800 nM | 32% | COc1cc2sc(C(=O)CCC(=O)O)cc2c(F)c1OCCCCCOc1c(OC)cc2sc(C(=O)[C@@H]3CC[C@H]3C(=O)O)cc2c1F (stereo in doubt) [Example 119, 2-(5-((5-((2-(3-carboxypropanoyl)-4-fluoro-6-methoxybenzo[b]thiophen-5-yl)oxy)pentyl)oxy)-4-fluoro-6-methoxybenzo[b]thiophene-2-carbonyl)cyclo-butanecarboxylic acid] | 13%
4 | 117 nM | 6 nM |  | COc1cc2sc(C(=O)C[C@H](C)C(=O)O)cc2cc1CCCCc1cc2cc(C(=O)C[C@H](C)C(=O)O)sc2cc1OC [Example 1, (2S,2′S)-4,4′-[butane-1,4-diylbis(6-methoxy-1-benzothiene-5,2-diyl)]bis(2-methyl-4-oxobutanoic acid)] | 26%
5 | 14 nM | 7 nM |  | COc1cc2sc(C(=O)C[C@H](C)C(=O)O)cc2cc1CCCc1cc2cc(C(=O)C[C@H](C)C(=O)O)sc2cc1OC [Example 2, (2S,2′S)-4,4′-[propane-1,3-diylbis(6-methoxy-1-benzothiene-5,2-diyl)]bis(2-methyl-4-oxobutanoic acid)] | 192%
6 | 273 nM | 114 nM |  | COc1cc2sc(C(=O)CCC(=O)O)cc2cc1CCCOc1nc2cc(C(=O)C[C@H](C)C(=O)O)sc2cc1OC [Example 3, (S)-4-(5-(3-(2-(3-carboxypropanoyl)-6-methoxybenzo[b]thiophen-5-yl)propoxy)-6-methoxythieno[3,2-b]pyridin-2-yl)-2-methyl-4-oxobutanoic acid] | 151%
7 | 33 nM | 6 nM |  | COc1cc2sc(C(=O)CCC(=O)O)cc2nc1OCCCc1ccc2sc(C(=O)CCC(=O)O)cc2c1 [Example 4, 4-(5-(3-((2-(3-carboxypropanoyl)-6-methoxythieno [3,2-b]pyridin-5-yl)oxy)propyl)benzo[b]thiophen-2-yl)-4-oxobutanoic acid] | 93%
8 | 381 nM | 84 nM |  | COc1cc2sc(C(=O)CCC(=O)O)cc2cc1CCCOc1cc2nc(C(=O)CCC(=O)O)sc2cc1OC [Example 5, 4-(5-(3-(2-(3-carboxypropanoyl)-6-methoxybenzo [b]thiophen-5-yl)propoxy)-6-methoxybenzo[d]thiazol-2-yl)-4-oxobutanoic acid] | 96%
9 | 206 nM | 53 nM |  | COc1cc2sc(C(=O)CCC(=O)O)cc2cc1OCCCc1ccc2sc(C(=O)CCC(=O)O)cc2c1 [Example 6, 4-(5-(3-((2-(3-carboxypropanoyl)-6-methoxybenzo [b]thiophen-5-yl)oxy)propyl)benzo[b]thiophen-2-yl)-4-oxobutanoic acid] | 106%
10 | 71 nM | 17 nM |  | COc1cc2sc(C(=O)CCC(=O)O)cc2cc1OCCc1nc2cc(C(=O)CCC(=O)O)sc2cc1OC [Example 7, 4-(5-(2-((2-(3-carboxypropanoyl)-6-methoxybenzo [b]thiophen-5-yl)oxy)ethyl)-6-methoxythieno[3,2-b]pyridin-2-yl)-4-oxobutanoic acid] | 97%
